Patent publication US20120088247A1, “MATERIALS AND METHODS FOR TREATING PATIENTS WITH TAXOXIFEN” (Indian University Research & Technology Corporatio, priority 2009, published 2012)

Key:
[1] = Plasma concentrations of tamoxifen and its metabolites (HPLC) in women with breast cancer taking tamoxifen, by UGT2B7 genotype and CYP2D6 score
Excerpt: Patients. […] Subjects for the registry were recruited from the Breast Oncology Program at the University of Michigan Comprehensive Cancer Center and the Indiana University Cancer Center. […] Patients were enrolled after they had completed all primary surgery, radiation, and adjuvant chemotherapy. Specimens and data from this registry has been sed for several other studies, as reported previously,[16],[6],[17].
Study design. […] At the indicated time points, medical histories, including a comprehensive list of current medications, were obtained, and blood samples (5 mL) were drawn. […] Blood was collected in heparin tubes, and plasma was separated within 1 hour of blood collection by centrifugation at 2060×g. All samples (plasma and whole blood) were transferred to cryogenic vials (Corning, Cambridge, Mass.), shipped to the laboratory of the Division of Clinical Pharmacology, Indiana University, on dry ice, and stored at −80° C. until analysis.
UGT 2B7 genotyping. Genomic deoxyribonucleic acid (DNA) was extracted from the leukocyte portion of whole blood by use of a QJAamp DNA Blood Mini Kit (Qiagen, Valencia, Calif.) and used for genotyping of UGT2B7 variants. UGT2B7 codon 268 genotypes were determined by real-time PCR assays using the TaqMan Drug Metabolism Genotyping Assay C—32449742—20 (Applied Biosystems, Foster City, Calif.) in the ABI 7900HT sequence detection system equipped with an autoloader in the Functional Genomics Core Facility at the Penn State College of Medicine. […] The same primers were used for both PCR and sequencing: sense, 5′-[…]-3′ (SEQ ID. No. 3), located +642-+670 from the UGT2B7 translation start site); and antisense, 5′-[…]-3′ (SEQ. ID. No. 4), located +1555-+1597 from the UGT2B7 translation start site.
CYP2D6 genotyping. Genomic DNA was extracted from whole blood. CYP2D6 genotyping was conducted using two different genotyping methods: The AmpliChip CYP450 Test (Roche Diagnostics, Indianapolis, Ind.) and the Luminex CYP450C CYP2D6 assay (TM Biosciences). The AmpliChip was used for 129 of the DNA samples. It tests for 33 CYP2D6 alleles (ie, *1 to *10AB, *11, *14A, *14B, *15, *17, *19, *20, *25, *26, *29 to *31, *35, *36, *40, *41, *1N, *2xN, *4xN, *10xN, *17xN, *35xN, and *41xN). The remaining 60 samples were genotyped using the Luminex CYP450 Test. It tests for 16 CYP2D6 alleles (ie, *2 through *12, *14, *15, *17, and *41). The genotypes of approximately 10-20% of the samples were confirmed by running both assays or by using independent Taqman or restriction fragment length polymorphism (RFLP) assays.
CYP2D6 Gene Score. The CYP2D6 alleles were assigned a value that reflects the expected relative activity of the CYP2D6 enzyme for which they code. Accordingly, fully functional CYP2D6 alleles (e.g. *1, *2, *33, *35) were assigned a score of 1. CYP2D6 alleles associated with reduced enzyme activity (e.g. *9,*10, *17, *29, *37, *41, *45, *46) were scored as 0.5.
CYP2D6 Inhibition Factor and CYP2D6 Activity Score. After calculating the expected activity of the CYP2D6 enzyme according to the genotype, the possible effects of known CYP2D6 inhibitors on the performance of the CYP2D6 protein were incorporated. […] This rule defines the CYP2D6 inhibition factor. The CYP2D6 Activity Score is expressed as the product of multiplying the CYP2D6 Gene Score by the Inhibitor factor, which is defined in the following equation: activity score=(gene score×inhibition factor),
In presenting CYP2D6 activity score data, an extensive metabolizer (EM) was defined as an individual with an activity score greater than 2; a poor metabolizer (PM) was defined with an activity score less than 1; and an intermediate metabolizer (IM) as an individual who has a score between 1 and 2.

[2] = literature refs [18],[19]; cited from earlier work

## CC/C(=C(\c1ccccc1)c1ccc(OCCNC)cc1)c1ccccc1 [N-desmethyl-tamoxifen]
[1]; FIG. 1, P<0.05 considered significant
  Association of plasma concentration with UGT2B7 genotype: not significantly associated
[1]; UGT2B7 *2/*2 group (FIG. 1A, 1D)
  Mean plasma concentration, percent larger in the *2/*2 group: 42%

## CC/C(=C(\c1ccc(O)cc1)c1ccc(OCCNC)cc1)c1ccccc1 [endoxifen, 4-hydroxy-N-desmethyl-tamoxifen]
[1]; female, human, in vivo
  Increase in concentration due to gene-gene interaction: 220%
  Increase in endoxifen concentration: 58%
  Mean plasma endoxifen concentration, percent higher in UGT2B7*2/*2 group than in each of *1/*2 and *1/*1 groups: 34%
  Range of mean plasma endoxifen concentration by compound UGT2B7 genotype and CYP2D6 score: 12 to 100 nM
  Range of mean plasma endoxifen concentration over combined UGT2B7 genotype and CYP2D6 score groups: 19 to 107 nM
[1]; in vivo
  Association of plasma concentration with UGT2B7 genotype: significant

## CC/C(=C(\c1ccccc1)c1ccc(OCCN(C)C)cc1)c1ccccc1 [tamoxifen, Tamoxifen]
[2]
  half-life: 120 to 170 h
